Source: US8846367B2, “Coryneform bacterium transformant and process for producing phenol using the same” (Green Phenol Development Co., Ltd., priority 2010, dated 2014)
Where two headings read alike, the source gives them in different places.

Tests used:
[1] = tested on: Escherichia coli JM109; conditions: aerobic culture, LB liquid medium, 37° C.
Procedure: (§1) A growth inhibition test in aerobic culture was performed to examine the influence of phenol on Corynebacterium glutamicum, Escherichia coli, and Pseudomonas putida. Pseudomonas putida S12, which was used for the test, is reported to be a solvent-resistant strain. In the report, disclosed is an unparalleled technology using the strain as a host in phenol production.
Escherichia coli JM109 was applied to LB agar medium (1% polypeptone, 0.5% yeast extract, 0.5% NaCl and 1.5% agar) and was left stand in the dark at 37° C. for 15 hours.
An inoculation loop of the Escherichia coli JM109 grown on a plate as above was inoculated into a test tube containing 10 mL of LB liquid medium (1% polypeptone, 0.5% yeast extract, and 0.5% NaCl), and aerobic culture was performed with shaking at 37° C. for 13 hours.
The Escherichia coli JM109 grown in the above conditions was inoculated into 100 mL of LB liquid medium in such a way that the initial bacterial cell concentration would be OD610=0.05, phenol was added at the same time in such a way that the final concentration would be 0, 0.16, or 0.20 mM, and aerobic culture was performed with shaking at 37° C. The growth of bacterial cells was determined by absorbance measurement at OD610.

[2] = tested on: Pseudomonas putida F1; conditions: aerobic culture, LB (+glucose) liquid medium, 30° C.
Procedure: as §1
(§2) Pseudomonas putida F1 and S12 were applied to LB agar medium (1% polypeptone, 0.5% yeast extract, 0.5% NaCl and 1.5% agar) and were left stand in the dark at 30° C. for 15 hours.
(§3) An inoculation loop of each of the Pseudomonas putida F1 and S12 grown on a plate as above was inoculated into a test tube containing 10 mL of LB (+glucose) liquid medium (1% polypeptone, 0.5% yeast extract, 0.5% NaCl and 0.4% glucose), and aerobic culture was performed with shaking at 30° C. for 13 hours.
(§4) The Pseudomonas putida F1 and S12 grown in the above conditions were each inoculated into 100 mL of LB (+glucose) liquid medium in such a way that the initial bacterial cell concentration would be OD610=0.05, phenol was added at the same time in such a way that the final concentration would be 0, 0.10, or 0.20 mM, and aerobic culture was performed with shaking at 30° C. The growth of bacterial cells was determined by absorbance measurement at OD610.

[3] = tested on: Pseudomonas putida S12; conditions: aerobic culture, LB (+glucose) liquid medium, 30° C.
Procedure: as §1, §2, §3, §4

[4] = tested on: Corynebacterium glutamicum R; conditions: aerobic culture, A liquid medium, 33° C.
Procedure: as §1
Corynebacterium glutamicum R was applied to A agar medium (2 g of (NH2)2CO, 7 g of (NH4)2SO4, 0.5 g of KH2PO4, 0.5 g of K2HPO4, 0.5 g of MgSO4.7H2O, 1 mL of 0.06% (w/v) Fe2SO4.7H2O+0.042% (w/v) MnSO4.2H2O, 1 mL of 0.02% (w/v) biotin solution, 2 mL of 0.01% (w/v) thiamin solution, 2 g of yeast extract, 7 g of vitamin assay casamino acid, 40 g of glucose, and 15 g of agar were suspended in 1 L of distilled water) and was left stand in the dark at 33° C. for 15 hours.
An inoculation loop of the Corynebacterium glutamicum R grown on a plate as above was inoculated into a test tube containing 10 mL of A liquid medium (2 g of (NH2)2CO, 7 g of (NH4)2SO4, 0.5 g of KH2PO4, 0.5 g of K2HPO4, 0.5 g of MgSO4.7H2O, 1 mL of 0.06% (w/v) Fe2SO4.7H2O+0.042% (w/v) MnSO4.2H2O, 1 mL of 0.02% (w/v) biotin solution, 2 mL of 0.01% (w/v) thiamin solution, 2 g of yeast extract, 7 g of vitamin assay casamino acid, and 40 g of glucose were suspended in 1 L of distilled water) and was aerobically cultured with shaking at 33° C. for 13 hours.
The Corynebacterium glutamicum R grown in the above conditions was inoculated into 100 mL of A liquid medium in such a way that the initial bacterial cell concentration would be OD610=0.05, phenol was added at the same time in such a way that the final concentration would be 0, 0.16, 0.2, 0.24, or 0.32 mM, and aerobic culture was performed with shaking at 33° C. The growth of bacterial cells was determined by absorbance measurement at OD610.

SMILES: Oc1ccccc1 [phenol]
- proliferation of Escherichia coli (OD610) ([1]; 0.16% phenol): significantly affected
- proliferation of Escherichia coli (OD610) ([1]; 0.20% phenol): completely inhibited
- proliferation of Pseudomonas putida F1 (OD610) ([2]; 0.10% phenol): significantly affected
- proliferation of Pseudomonas putida F1 (OD610) ([2]; 0.20% phenol): completely inhibited
- proliferation of Pseudomonas putida S12 (OD610) ([3]; 0.10% phenol): significantly affected
- proliferation of Pseudomonas putida S12 (OD610) ([3]; 0.20% phenol): completely inhibited
- proliferation of Corynebacterium glutamicum (OD610) ([4]; 0.16% phenol): hardly affected
- proliferation of Corynebacterium glutamicum (OD610) ([4]; 0.20% phenol): favorable growth
- proliferation of Corynebacterium glutamicum (OD610) ([4]; 0.24% phenol): able to proliferate
